Tests used:
[1] = biological target: T1, DPAGT1 (Homo sapiens, UniProt Q9H3H5); assay: DPAGT1 radiometric in vitro activity assay (end point, phosphorimaging of radio-TLC); type: biochemical; settings: for % Activity of DPAGT1 in the presence of a tunicamycin analogue compared to a negative control (GFB): Table S1, analogue 1 µM, DPAGT1 1 µM, dolichyl monophosphate 50 µM, UDP-GlcNAc(1-14C) 50 µM, 37 °C, 21 min, three biological replicates; for DPAGT1 inhibition (in words): inhibitor 1 µM, enzyme:inhibitor 1:1, substrates 50 µM
T1 construct: full-length DPAGT1 bearing an additional tobacco etch virus (TEV) protease-cleavable N-terminal His6 tag; His6 with TEV protease cleavage site ([…]/S leader) (N, cleaved yes); made in house; host or cells: Spodoptera frugiperda Sf9 insect cells (baculovirus, pFB-LIC-Bse vector)
T1 sequence (Q9H3H5 with tags, fused parts or gaps): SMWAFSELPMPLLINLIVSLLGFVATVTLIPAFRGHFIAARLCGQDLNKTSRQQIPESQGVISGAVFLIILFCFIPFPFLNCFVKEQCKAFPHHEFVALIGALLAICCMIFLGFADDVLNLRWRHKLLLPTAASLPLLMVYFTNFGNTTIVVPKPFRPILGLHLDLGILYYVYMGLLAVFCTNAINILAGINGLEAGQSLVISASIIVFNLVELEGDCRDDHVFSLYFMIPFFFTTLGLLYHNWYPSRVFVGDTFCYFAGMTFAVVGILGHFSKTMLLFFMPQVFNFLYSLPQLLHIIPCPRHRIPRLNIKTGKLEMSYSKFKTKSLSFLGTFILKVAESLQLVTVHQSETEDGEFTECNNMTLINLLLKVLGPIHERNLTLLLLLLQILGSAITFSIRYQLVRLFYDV
Description: Figure 2 Design, synthesis and in vitro inhibitory activity of lipid-altered tunicamycins. (A) Structure of DPAGT1 in complex with tunicamycin[21] showing key interactions primarily along TMH5 that in concert with a Trp122 “lid” create the lipid-engagement site (blue). This engagement contrasts with a small, gated pocket below bounded primarily by Leu293 in which only smaller moieties (here an acetamide) are accommodated (red). (B) Guided by this structure, as an apparent snapshot of a Michaelis complex-like mode of binding, modulation at two acyl sites in the core scaffold was explored. […] Semisynthesis allowed generation of graduated lipid tunicamycin analogues through regiochemical differentiation in carbamoylation to generate two key divergent intermediates: Tun-0E,0G and Tun-0E,2G. Subsequent differential acylations allow for generation of both symmetric and asymmetric Tun-XE,YG analogues. Reagents and conditions: (a) Ac2O, pyridine; (b) Boc2O, DMAP, THF; (c) NaOMe, MeOH; (d) 4 M HCl in dioxane, MeOH; (e) HATU, DIPEA, octanoic acid, DMF; (f) HATU, DIPEA, carboxylic acid; (g) HATU, DIPEA, 2 × carboxylic acid. (C) Residual % in vitro activity of DPAGT1 following incubation with analogues [DPAGT1 ([…]), MgCl2 (5 mM), Tun analogue ([…]), dolichol phosphate ([…]), and UDP-GlcNAc(1-^14C) ([…]) in 1% OGNG/CHS/cardiolipin] was assessed through end point assay at 37 °C via phosphorimaging. These were determined on the basis of three biological replicates, each using three technical replicates. Error bars shown are standard deviations.
The intended targeting and graduated modulation of DPAGT1’s PNPT activity was assessed in vitro using a highly pure recapitulated source. Briefly, full-length DPAGT1 bearing an additional tobacco etch virus (TEV) protease-cleavable N-terminal His6 tag was expressed using a baculovirus (DH10Bac)/insect cell (Spodoptera frugiperda Sf9) system using a pFB-LIC-Bse expression vector. DPAGT1 is an integral transmembrane enzyme, and thus, after harvesting and lysis, protein was extracted from the expression host membrane fraction using octyl glucose neopentyl glycol (OGNG) (1% w/v) and cholesterylhemisuccinate (CHS) (0.1% w/v) before isolation and purification by immobilized metal affinity chromatography (IMAC) using a Co^2+-charged (“TALON”) resin and elution with an imidazole gradient. To ensure that there were no confounding effects of the His6 tag, this was then cleaved with TEV protease followed by reverse IMAC and size exclusion chromatography in sequence.
Radiometric bisubstrate analyses allowed excellent sensitivity under the conditions necessary for proper recapitulation of the activity. Purified DPAGT1 (1 μM) was incubated with both substrates, dolichol monophosphate and radiolabeled UDP-N-acetyl-D-[1-^14C]glucosamine, at 50 μM, and the activity was determined directly by end point phosphor detection of product dolichol-PP-N-acetyl-D-[1-^14C]glucosamine formation.
MgCl2, 10 mM imidazole (pH 8.0), 200 mM NaCl , 2 mM TCEP (added fresh), 5% Glycerol, 0.18% OGNG, 0.01 8% CHS, 0.0036% cardiolipin) and the protein was eluted with WB supplemented with 250 mM imidazole (pH 8.0). The eluted protein was desalted using PD-10 columns (GE Healthcare) pre-equilibrated with gel filtration buffer (GFB: 20 mM HEPES (pH […]
cardiolipin). Desalted protein was subsequently treated with 10:1 TEV protease (w:w, protein:enzyme) overnight at 4 ° C. The TEV protease treated protein was separated from the 6-His-tagged enzymes and uncleaved DPAGT1 by incubation for 1 h with Talon resin (prepared as described above) at 4 °C for 1 h. The resin was collected in a column, the flowthrough collected and the protein sample was centrifuged at 21,500 rpm in a Beckman TA25.5 rotor for 10 min at 4 ° C. The supernatant was then concentrated to 0.5 mL using a 30 kDa cutoff PES concentrator (Corning), with mixing every 5 mins during concentration. The […]

[2] = test system: ATF4; assay: ATF4 high-content imaging assay in primary human dermal fibroblasts; type: cell-based; settings: 6 h, Figures S8–S12
Experimental: A targeted panel of tunicamycin analogues was tested in the ATF4 High Content Imaging assay to assess their ER stress generating ability in a primary cell line. Normal adult human dermal fibroblasts (NHDF-Ad, Lonza) were plated in a 96-well Phenoplate (PerkinElmer) at a seeding density of 10,000 cells per well in fibroblast growth medium (containing fibroblast basal medium, 10% FBS, 0.1% insulin, 0.1% hFGF-B, 0.1% Gentamicin/Amphotericin) and incubated at 37°C, 5% CO2. Treatment with pre-diluted compounds was performed after 24 hrs with final concentrations ranging from 10 µM – 5 nM (final DMSO concentration was 0.3%). Low control (0.3% DMSO final conc.) and high control (0.3 µM tunicamycin final conc.) wells were again included for assay normalization. Treated cells were incubated for 6 hrs at 37°C, 5% CO2 before fixing (4% PFA in PBS, 20 min at room temperature followed by washing (3x) with PBS). Direct ATF4 immunofluorescence staining was then performed, whereby cells were treated with a Coralite Plus 488-conjugated ATF4 Polyclonal antibody (CL488-10835, Proteintech) in a 1:100 dilution of Perm-block buffer (10% FBS, 0.3% TritonX-100 in PBS) for 2 hrs. Nuclei staining was then performed with DRAQ5 dye (ab108410, Abcam) at 1:1000 in PBS. Plates were imaged on a Leica SP8 confocal microscope equipped with 488 nm and 633 nm excitation and images were analysed using script-based algorithms as described for HEK cells above. […]

[3] = test system: His-tagged IgG-Fc domain; assay: In cell glycoprotein inhibition assay (IgG-Fc expression, SDS-PAGE and Western blot); type: cell-based, human; settings: HEK293T cells, 3 days, analogue 10 µM down to 0.5 nM (Tun-8E,2G 300 µM down to 15 nM), Figure S13
[4] = biological target: T2, DPAGT1 (Homo sapiens, UniProt Q9H3H5); assay: Heat-induced denaturation assay of DPAGT1 with bound ligand; type: binding; settings: heat-induced denaturation; DPAGT1 alone 51.7 ± 0.2 °C
T2 sequence (Q9H3H5 1-408): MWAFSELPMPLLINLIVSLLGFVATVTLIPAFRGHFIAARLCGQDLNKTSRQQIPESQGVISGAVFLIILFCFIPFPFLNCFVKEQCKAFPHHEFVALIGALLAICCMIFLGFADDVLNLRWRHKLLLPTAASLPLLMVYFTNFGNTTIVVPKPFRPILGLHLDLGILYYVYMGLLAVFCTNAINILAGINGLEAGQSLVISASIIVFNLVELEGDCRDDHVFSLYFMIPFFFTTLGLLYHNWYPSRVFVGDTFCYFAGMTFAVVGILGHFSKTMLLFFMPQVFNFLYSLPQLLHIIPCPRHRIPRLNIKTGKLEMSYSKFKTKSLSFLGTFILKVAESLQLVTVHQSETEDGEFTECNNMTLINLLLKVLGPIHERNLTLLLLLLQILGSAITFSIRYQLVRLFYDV
Description: The structure of DPAGT1 in complex with the archetypal scaffold natural product tunicamycin[21] […] Trp122 moves so as to use its indole moiety to hydrophobically provide a binding “cap” or “lid” over the proximal portion of the 10′-N lipid chain.

CCCCCCCC(=O)N[C@H]1[C@H](O[C@H]2O[C@H](CO)[C@@H](O)[C@H](O)[C@H]2NC(=O)CCCCCCC)O[C@H](C[C@@H](O)[C@H]2O[C@@H](n3ccc(=O)[nH]c3=O)[C@H](O)[C@@H]2O)[C@H](O)[C@@H]1O [Tun-8E,8G]
% Activity of DPAGT1 in the presence of a tunicamycin analogue compared to a negative control (GFB) [1]: 90.0%
DPAGT1 inhibition (in words) [1]: little to no significant inhibition
increase in ATF4 (in words) [2]: only Tun itself leads to an increase in ATF4
glycosylation state of expressed IgG-Fc (in words) [3]: expression of intact glycosylated protein

CCCCCCCCC(=O)N[C@H]1[C@H](O[C@H]2O[C@H](CO)[C@@H](O)[C@H](O)[C@H]2NC(=O)CCC)O[C@H](C[C@@H](O)[C@H]2O[C@@H](n3ccc(=O)[nH]c3=O)[C@H](O)[C@@H]2O)[C@H](O)[C@@H]1O [Tun-9E,4G]
% Activity of DPAGT1 in the presence of a tunicamycin analogue compared to a negative control (GFB) [1]: 83.6%
DPAGT1 inhibition (in words) [1]: did not cause a significant reduction in DPAGT1 activity

CCCCCCCCC(=O)N[C@H]1[C@@H](O[C@@H]2O[C@H](C[C@@H](O)[C@H]3O[C@@H](n4ccc(=O)[nH]c4=O)[C@H](O)[C@@H]3O)[C@H](O)[C@H](O)[C@H]2NC(=O)CC(C)C)O[C@H](CO)[C@@H](O)[C@@H]1O [Tun-i5E,9G]
% Activity of DPAGT1 in the presence of a tunicamycin analogue compared to a negative control (GFB) [1]: 90.7%
DPAGT1 inhibition (in words) [1]: little to no significant inhibition

dolichol-1-phosphate [Dol-1-P]
Tm,1/2 of DPAGT1 bound to ligand [4]: 58.5 ± 0.3 °C

Source: publication PMC11758266, “Lipid-Modulated, Graduated Inhibition of N-Glycosylation Pathway Priming Suggests Wide Tolerance of ER Proteostasis to Stress” (ACS Central Science, 2024)
